Melting point, inhibition and pest or weed control data for 13 compounds are collected here from US11154060B2, “Microbiocidal oxadiazole derivatives” (SYNGENTA PARTICIPATIONS AG, priority 2016, dated 2021).

The test system of series [1] is Glomerella lagenarium (Colletotrichum lagenarium). Description: Glomerella lagenarium (Colletotrichum lagenarium) liquid culture / cucumber / preventative (anthracnose). Particulars: Colletotrichum orbiculare, liquid culture in PDB, 24° C., 3-4 days after application, read-out: control of Glomerella lagenarium compared to untreated control (inhibition of growth, photometric). Format: cell-based. How it is done: Mycelia fragments or conidia suspensions of a fungus prepared either freshly from liquid cultures of the fungus or from cryogenic storage, are directly mixed into nutrient broth. DMSO solutions of the test compound (max. 10 mg/ml) are diluted with 0.025% Tween20 by a factor of 50 and 10 μl of this solution is pipetted into a microtiter plate (96-well format). The nutrient broth containing the fungal spores/mycelia fragments is then added to give an end concentration of the tested compound. The test plates are incubated in the dark at 24° C. and 96% relative humidity. The inhibition of fungal growth is determined photometrically after 2 to 7 days, depending on the pathosystem, and percent antifungal activity relative to the untreated check is calculated. Conidia of the fungus from cryogenic storage are directly mixed into nutrient broth (PDB potato dextrose broth). After placing a (DMSO) solution of test compound into a microtiter plate (96-well format), the nutrient broth containing the fungal spores is added. The test plates are incubated at 24° C. and the inhibition of growth is measured photometrically 3-4 days after application.

Series [2] relates to Puccinia recondita f. sp. tritici. Description: Puccinia recondita f. sp. tritici / wheat / leaf disc preventative (brown rust). The settings on record: foliar, wheat leaf segments cv. Kanzler, inoculated 1 day after application, assessed 7-9 days after application, read-out: control of Puccinia recondita f. sp. tritici compared to untreated control. It counts as in vivo. Here is the method: Leaf disks or leaf segments of various plant species are cut from plants grown in a greenhouse. The cut leaf disks or segments are placed in multiwell plates (24-well format) onto water agar. The leaf disks are sprayed with a test solution before (preventative) or after (curative) inoculation. Compounds to be tested are prepared as DMSO solutions (max. 10 mg/ml) which are diluted to the appropriate concentration with 0.025% Tween20 just before spraying. The inoculated leaf disks or segments are incubated under defined conditions (temperature, relative humidity, light, etc.) according to the respective test system. A single evaluation of disease level is carried out 3 to 14 days after inoculation, depending on the pathosystem. Percent disease control relative to the untreated check leaf disks or segments is then calculated. Wheat leaf segments cv. Kanzler are placed on agar in multiwell plates (24-well format) and sprayed with the formulated test compound diluted in water. The leaf disks are inoculated with a spore suspension of the fungus 1 day after application. The inoculated leaf segments are incubated at 19° C. and 75% rh under a light regime of 12 h light/12 h darkness in a climate cabinet and the activity of a compound is assessed as percent disease control compared to untreated when an appropriate level of disease damage appears in untreated check leaf segments (7-9 days after application).

Series [3] has the same test system. Description: Puccinia recondita f. sp. tritici / wheat / leaf disc curative (brown rust). The settings on record: foliar, wheat leaf segments cv. Kanzler, applied 1 day after inoculation, assessed 6-8 days after application, read-out: control of Puccinia recondita f. sp. tritici compared to untreated control. It counts as in vivo. Here is the method:
Leaf disks or leaf segments of various plant species are cut from plants grown in a greenhouse. The cut leaf disks or segments are placed in multiwell plates (24-well format) onto water agar. The leaf disks are sprayed with a test solution before (preventative) or after (curative) inoculation. Compounds to be tested are prepared as DMSO solutions (max. 10 mg/ml) which are diluted to the appropriate concentration with 0.025% Tween20 just before spraying. The inoculated leaf disks or segments are incubated under defined conditions (temperature, relative humidity, light, etc.) according to the respective test system. A single evaluation of disease level is carried out 3 to 14 days after inoculation, depending on the pathosystem. Percent disease control relative to the untreated check leaf disks or segments is then calculated. Wheat leaf segments cv. Kanzler are placed on agar in multiwell plates (24-well format). The leaf segments are inoculated with a spore suspension of the fungus. Plates are stored in darkness at 19° C. and 75% rh. The formulated test compound diluted in water is applied 1 day after inoculation. The leaf segments are incubated at 19° C. and 75% rh under a light regime of 12 h light/12 h darkness in a climate cabinet and the activity of a compound is assessed as percent disease control compared to untreated when an appropriate level of disease damage appears in untreated check leaf segments (6-8 days after application).

For a further series, the system named is Phakopsora pachyrhizi. Description: Phakopsora pachyrhizi / soybean / leaf disc preventative (Asian soybean rust). Format: in vivo. Particulars: foliar, soybean leaf disks, inoculated one day after application, assessed 12-14 days after application, read-out: control of Phakopsora pachyrhizi compared to untreated control. Here is the method:
Leaf disks or leaf segments of various plant species are cut from plants grown in a greenhouse. The cut leaf disks or segments are placed in multiwell plates (24-well format) onto water agar. The leaf disks are sprayed with a test solution before (preventative) or after (curative) inoculation. Compounds to be tested are prepared as DMSO solutions (max. 10 mg/ml) which are diluted to the appropriate concentration with 0.025% Tween20 just before spraying. The inoculated leaf disks or segments are incubated under defined conditions (temperature, relative humidity, light, etc.) according to the respective test system. A single evaluation of disease level is carried out 3 to 14 days after inoculation, depending on the pathosystem. Percent disease control relative to the untreated check leaf disks or segments is then calculated. Soybean leaf disks are placed on water agar in multiwell plates (24-well format) and sprayed with the formulated test compound diluted in water. One day after application leaf discs are inoculated by spraying a spore suspension on the lower leaf surface. After an incubation period in a climate cabinet of 24-36 hours in darkness at 20° C. and 75% rh leaf disc are kept at 20° C. with 12 h light/12 h darkness and 75% rh. The activity of a compound is assessed as percent disease control compared to untreated when an appropriate level of disease damage appears in untreated check leaf disks (12-14 days after application).

A further series concerns Uromyces viciae-fabae. Description: Uromyces viciae-fabae / field bean / leaf disc preventative (faba-bean rust). Format: in vivo. The settings on record: foliar, 288 h, 100 ppm in the applied formulation, field bean leaf discs, inoculated two hours after application, 12 days after application, read-out: disease control compared to untreated control leaf discs. How it is done:
Leaf disks or leaf segments of various plant species are cut from plants grown in a greenhouse. The cut leaf disks or segments are placed in multiwell plates (24-well format) onto water agar. The leaf disks are sprayed with a test solution before (preventative) or after (curative) inoculation. Compounds to be tested are prepared as DMSO solutions (max. 10 mg/ml) which are diluted to the appropriate concentration with 0.025% Tween20 just before spraying. The inoculated leaf disks or segments are incubated under defined conditions (temperature, relative humidity, light, etc.) according to the respective test system. A single evaluation of disease level is carried out 3 to 14 days after inoculation, depending on the pathosystem. Percent disease control relative to the untreated check leaf disks or segments is then calculated. Field bean leaf discs are placed on water agar in multiwell plates (96-well format) and 10 μl of the formulated test compound diluted in acetone and a spreader pipetted onto the leaf disc. Two hours after application leaf discs are inoculated by spraying a spore suspension on the lower leaf surface. The leaf discs are incubated in a climate cabinet at 22° C. with 18 hour day and 70% relative humidity. The activity of a compound is assessed as percent disease control compared to untreated when an appropriate level of disease damage appears in untreated check leaf disks (12 days after application).

In general, melting point refers to the temperature, or range, at which the solid turns liquid. The term inhibition denotes the percentage by which the read-out fell short of the control. Regarding `CCONC(=O)c1ccc(-c2noc(C(F)(F)F)n2)c(F)c1` [Compound 1.13, N-ethoxy-3-fluoro-4-[5-(trifluoromethyl)-1,2,4-oxadiazol-3-yl]benzamide], the melting point was in the range of 139 to 144 °C. Besides, in series [1], the inhibition at 20 ppm was no less than 80%. In addition, the pest or weed control at 200 ppm in series [2] is no less than 80%.
Turning to `O=C(NOCC(F)F)c1ccc(-c2noc(C(F)(F)F)n2)c(F)c1` [Compound 1.14, N-(2,2-difluoroethoxy)-3-fluoro-4-[5-(trifluoromethyl)-1,2,4-oxadiazol-3-yl]benzamide], the melting point was 138 to 140 °C. In addition, the inhibition at 20 ppm in series [1] was no less than 80%. Further, the pest or weed control at 200 ppm in series [2] is no less than 80%. In series [3], the pest or weed control at 200 ppm was no less than 80%.
In the case of `C=CCONC(=O)c1ccc(-c2noc(C(F)(F)F)n2)c(F)c1` [Compound 1.15, N-allyloxy-3-fluoro-4-[5-(trifluoromethyl)-1,2,4-oxadiazol-3-yl]benzamide], the melting point fell in the range of 132 to 136 °C. Besides, the inhibition at 20 ppm in series [1] was no less than 80%. Also, the pest or weed control at 200 ppm in series [2] was no less than 80%. Moreover, the pest or weed control at 200 ppm in series [3] was no less than 80%.
For `CONC(=O)Cc1ccc(-c2noc(C(F)(F)F)n2)cc1F` [Compound 1.20, 2-[2-fluoro-4-[5-(trifluoromethyl)-1,2,4-oxadiazol-3-yl]phenyl]-N-methoxy-acetamide], the melting point is 150 to 152 °C. Also, the inhibition at 20 ppm in series [1] was no less than 80%. Further, in series [2], the pest or weed control at 200 ppm is no less than 80%. Further, in series [3], the pest or weed control at 200 ppm is no less than 80%.
With `CON(CC(=O)NC(C)(C)C)C(=O)c1ccc(-c2noc(C(F)(F)F)n2)cc1` [Compound 2.2, N-[2-(tert-butylamino)-2-oxo-ethyl]-N-methoxy-4-[5-(trifluoromethyl)-1,2,4-oxadiazol-3-yl]benzamide], the inhibition at 20 ppm in series [1] was no less than 80%. Moreover, the pest or weed control at 200 ppm (in series [2]; with Phakopsora pachyrhizi; in series [3]) was no less than 80% throughout. Besides, the pest or weed control at 100 ppm with Uromyces viciae-fabae was no less than 80%.
With `O=C(NO)c1ccc(-c2noc(C(F)(F)F)n2)cc1` [Compound 2.4, 4-[5-(trifluoromethyl)-1,2,4-oxadiazol-3-yl]benzenecarbohydroxamic acid], in series [1], the inhibition at 20 ppm was no less than 80%. For the same compound, the pest or weed control at 200 ppm (in series [2]; in the series with Phakopsora pachyrhizi; in series [3]) was no less than 80% each time. Moreover, in the series on Uromyces viciae-fabae, the pest or weed control at 100 ppm is no less than 80%.
With `CON(Cc1ccccc1)C(=O)c1ccc(-c2noc(C(F)(F)F)n2)cc1` [Compound 2.5, N-benzyl-N-methoxy-4-[5-(trifluoromethyl)-1,2,4-oxadiazol-3-yl]benzamide], in series [1], the inhibition at 20 ppm is no less than 80%. Further, the pest or weed control at 200 ppm (in series [2]; with Phakopsora pachyrhizi; in series [3]) was no less than 80% each time. In the series on Uromyces viciae-fabae, the pest or weed control at 100 ppm is no less than 80%.
Take `C#CCN(OC)C(=O)c1ccc(-c2noc(C(F)(F)F)n2)cc1` [Compound 2.6, N-methoxy-N-prop-2-ynyl-4-[5-(trifluoromethyl)-1,2,4-oxadiazol-3-yl]benzamide]: the inhibition at 20 ppm in series [1] is no less than 80%. Besides, the pest or weed control at 200 ppm (in series [2]; with Phakopsora pachyrhizi; in series [3]) was no less than 80% each time. For the same compound, the pest or weed control at 100 ppm in the series on Uromyces viciae-fabae was no less than 80%.
For `CON(CC=C(Cl)Cl)C(=O)c1ccc(-c2noc(C(F)(F)F)n2)cc1` [Compound 2.7, N-(3,3-dichloroallyl)-N-methoxy-4-[5-(trifluoromethyl)-1,2,4-oxadiazol-3-yl]benzamide], the inhibition at 20 ppm in series [1] is no less than 80%. The pest or weed control at 200 ppm (in series [2]; in the series with Phakopsora pachyrhizi; in series [3]) was no less than 80% throughout. The pest or weed control at 100 ppm with Uromyces viciae-fabae is no less than 80%.
For `COC(=O)CN(OC)C(=O)c1ccc(-c2noc(C(F)(F)F)n2)cc1` [Compound 2.8, methyl 2-[methoxy-[4-[5-(trifluoromethyl)-1,2,4-oxadiazol-3-yl]benzoyl]amino]acetate], the inhibition at 20 ppm in series [1] is no less than 80%. The pest or weed control at 200 ppm (in series [2]; in the series with Phakopsora pachyrhizi; in series [3]) was no less than 80% in each case. The pest or weed control at 100 ppm in the series with Uromyces viciae-fabae is no less than 80%.
On to `C=CCN(OC)C(=O)c1ccc(-c2noc(C(F)(F)F)n2)cc1` [Compound 2.10, N-allyl-N-methoxy-4-[5-(trifluoromethyl)-1,2,4-oxadiazol-3-yl]benzamide], for which the inhibition at 20 ppm in series [1] is no less than 80%. Besides, the pest or weed control at 200 ppm (in series [2]; in the series on Phakopsora pachyrhizi; in series [3]) was no less than 80% throughout. Moreover, in the series with Uromyces viciae-fabae, the pest or weed control at 100 ppm was no less than 80%.
As for `C=CCONC(=O)Cc1ccc(-c2noc(C(F)(F)F)n2)cc1` [Compound 2.14, N-allyloxy-2-[4-[5-(trifluoromethyl)-1,2,4-oxadiazol-3-yl]phenyl]acetamide], the melting point fell in the range of 153 to 158 °C. For the same compound, in series [1], the inhibition at 20 ppm is no less than 80%. Also, the pest or weed control at 200 ppm in series [2] was no less than 80%.
Compound `O=C(Cc1ccc(-c2noc(C(F)(F)F)n2)cc1)NOCc1ccccc1` [Compound 2.15, N-benzyloxy-2-[4-[5-(trifluoromethyl)-1,2,4-oxadiazol-3-yl]phenyl]acetamide] yielded a melting point of 135 to 138 °C. For the same compound, the inhibition at 20 ppm in series [1] is no less than 80%. In addition, the pest or weed control at 200 ppm in series [2] was no less than 80%.
